Source: patent US6159959A, “Combined estrogen and antiestrogen therapy” (American Home Products Corporation, priority 1999, dated 2000)

Key:
[1] = biological target: T1, human estrogen receptor (Homo sapiens, UniProt P03372); assay: 2× VIT ERE Infection Assay (infection luciferase activity); format: cell-based; conditions: 24 h, read-out: Infection Luciferase Activity, 1 uM
T1 construct: expressed in transfected cells; host or cells: CHO (Chinese Hamster Ovary) cells, stably transfected
Method: 48 h prior to treatment the growth medium was replaced with DMEM lacking phenol red+10% dextran coated charcoal stripped FBS (treatment medium).
Reporter DNA (Promega plasmid pGL2 containing two tandem copies of the vitellogenin ERE in front of the minimal thymidine kinase promoter driving the luciferase gene) was combined with the B-galactosidase expression plasmid pCH110 (Pharmacia) and carrier DNA (pTZ18U) in the following ratio:
20 uL of this mixture was added to each well of cells and remained on the cells for 16 h. […] Each treatment condition was performed on 8 wells (n=8) which were incubated for 24 h prior to the luciferase assay.
After 24 h exposure to compounds, the media was removed and each well washed 2× with 125 uL of PBS lacking Mg^++ and Ca^++. After removing the PBS, 25 uL of Promega lysis buffer was added to each well and allowed to stand at room temperature for 15 min, followed by 15 min at -80° C. and 15 min at 37° C.
The luciferan substrate (Promega) was added in 100 uL aliquots to each well automatically by the luminometer and the light produced (relative light units) was read 10 seconds after addition.
To the remaining 5 uL of lysate 45 uL of PBS was added. Then 50 uL of Promega B-galactosidase 2× assay buffer was added, mixed well and incubated at 37° C. for 1 hour. A plate containing a standard curve (0.1 to 1.5 milliunits in triplicate) was set up for each experimental run. The plates were analyzed on a Molecular Devices spectrophotometric plate reader at 410 nm. The optical densities for the unknown were converted to milliunits of activity by mathematical extrapolation from the standard curve.
The luciferase data was generated as relative light units (RLUs) accumulated during a 10 second measurement and automatically transferred to a JMP (SAS Inc) file where background RLUs were subtracted. The B-galactosidase values were automatically imported into the file and these values were divided into the RLUs to normalize the data. The mean and standard deviations were determined from a n=8 for each treatment.

[2] = biological target: T2, estrogen receptor (Homo sapiens, UniProt P03372); assay: In vitro Estrogen Receptor Binding Assay (competition with [3H]-17β-estradiol); conditions: compared with indenoindole #6
T2 construct: expressed in transfected cells; host or cells: CHO cells overexpressing the receptor; cytosol (100,000 g supernatant)
T2 sequence (P03372 1-595): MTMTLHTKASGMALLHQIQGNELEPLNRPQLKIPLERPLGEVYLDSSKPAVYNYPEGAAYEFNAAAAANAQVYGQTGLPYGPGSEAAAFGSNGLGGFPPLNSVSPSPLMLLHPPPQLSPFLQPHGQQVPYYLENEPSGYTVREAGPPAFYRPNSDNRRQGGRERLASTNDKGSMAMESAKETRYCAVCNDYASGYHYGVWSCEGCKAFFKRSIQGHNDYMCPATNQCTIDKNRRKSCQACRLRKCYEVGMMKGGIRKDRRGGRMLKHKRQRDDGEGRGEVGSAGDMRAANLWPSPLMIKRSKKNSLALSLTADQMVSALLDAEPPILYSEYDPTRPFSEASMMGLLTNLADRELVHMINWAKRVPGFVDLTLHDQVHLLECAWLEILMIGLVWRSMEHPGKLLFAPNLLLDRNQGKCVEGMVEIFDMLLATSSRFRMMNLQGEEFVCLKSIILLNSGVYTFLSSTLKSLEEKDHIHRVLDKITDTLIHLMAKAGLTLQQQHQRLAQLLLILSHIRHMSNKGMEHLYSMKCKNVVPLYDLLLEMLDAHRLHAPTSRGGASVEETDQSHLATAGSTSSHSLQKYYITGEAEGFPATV
Method: CHO cells overexpressing the estrogen receptor were grown in 150 mm^2 dishes in DMEM+10% dextran coated charcoal, stripped fetal bovine serum. The plates were washed twice with PBS and once with 10 mM Tris-HCl, pH 7.4, 1 mM EDTA. Cells were harvested by scraping the surface and then the cell suspension was placed on ice. Cells were disrupted with a hand-held motorized tissue grinder using two, 10-second bursts. The crude preparation was centrifuged at 12,000 g for 20 minutes followed by a 60 minute spin at 100,000 g to produce a ribosome free cytosol. The cytosol was then frozen and stored at -80° C. […]
The competition assay was performed in a 96-well plate (polystyrene*) which binds <2.0% of the total input [^3 H]-17β-estradiol and each data point was gathered in triplicate. […] Samples were counted to 2% or 10 minutes, whichever occurs first. […] 17βestradiol, wells containing radioactivity and cytosol, but not processed with charcoal were included to quantitate amounts of available isotope. Also, wells containing radioactivity but no cytosol were processed with charcoal to estimate unremovable DPM of [^3 H] […]
Counts per minute (CPM) of radioactivity were automatically converted to disintegrated per minute (DPM) by the Beckman LS 7500 Scintillation Counter using a set of quenched standards to generate a H# for each sample. […]

[3] = tested on: ovariectomized rat; conditions: cited from earlier work
[4] = tested on: bone; conditions: in humans; cited from earlier work
[5] = tested on: uterus; conditions: in vivo; cited from earlier work

| Compound | activation at 1 µM [1] | bind to the ER receptor (comparison in words) [2] | other results |
| --- | --- | --- | --- |
| COc1ccc2c(c1)Cc1c-2n(Cc2ccc(OCCN3CCCCC3)cc2)c2ccc(O)cc12 [Cmpd. 6, 2-Methoxy-5-[4-(2-piperidin-1-yl-ethoxy)-benzyl]-5,10-dihydro-indeno[1,2-b]indol-8ol] | -2% | – | – |
| COc1ccc2c(c1)CCc1c-2n(Cc2ccc(OCCN3CCCCC3)cc2)c2ccc(O)cc12 [Cmpd. 21, 3-Methoxy-11-[4-(2-piperidin-1-yl-ethoxy)-benzyl]-5,11-dihydro-6H-benzo[a]carbazol-8-ol] | -7% | bind better to the ER receptor than the indenoindole #6 | – |
| COc1ccc2c(c1)CCc1c-2n(Cc2ccc(OCCN3CCCCCC3)cc2)c2ccc(O)cc12 [Cmpd. 22, 11-[4-(2-Azepan-1-yl-ethoxy)-benzyl]-3-methoxy-5,11-dihydro-6H-benzo[a]carbazol-8-ol] | 1% | bind better to the ER receptor than the indenoindole #6 | – |
| O=C(c1ccc(OCCN2CCCCC2)cc1)c1c(-c2ccc(O)cc2)sc2cc(O)ccc12 [Raloxifene] | – | – | ability to spare bone [3]: maintaining the ability to spare bone; stimulation of uterine growth ([3]; compared with Tamoxifen): stimulate uterine growth in the ovariectomized rat to a lesser extent than Tamoxifen |
| CC/C(=C(\c1ccccc1)c1ccc(OCCN(C)C)cc1)c1ccccc1 [Tamoxifen] | – | – | effect on the bone [4]: estrogen agonist-like effect on the bone; agonism in the uterus [5]: partial agonist in the uterus |
